From publication PMC4645160, “Targeting kinases with anilinopyrimidines: discovery of N-phenyl-N’-[4-(pyrimidin-4-ylamino)phenyl]urea derivatives as selective inhibitors of class III receptor tyrosine kinase subfamily” (Scientific Reports, 2015)
Like-named read-outs stand apart in the source and are kept apart here.

Tests used:
Format in all cases: binding
[1] = biological target: T1, CSF1R (Homo sapiens, UniProt P07333); test: KinomeScan Kd determination, CSF1R; settings: for KdRTK/KdKIT, CSF1R: Kd CSF1R over Kd KIT; for Kd: KinomeScan
T1 construct: purchased DiscoverX (KinomeScan service)
Experimental: (§1) The compounds were evaluated using the KinomeScan™ platform (http://www.discoverx.com/services/drug-discovery-development-services/kinase-profiling/kinomescan), that measures the ability of the test compound to disrupt the complex between a high affinity ATP-mimic probe immobilized on a solid support and the kinase of interest. The KinomeScan is a very helpful technology for the fast and reliable screening of a number of compounds against a wide and customizable panel of kinases. Besides, it is not based on the use of hazardous radioactive ^32P-ATP and has a very low rate of false positive (<1%)[44]. The screening platform outputs a “Percent of Control” (POC) value, statistically correlated to the dissociation constant (Kd) value (http://www.discoverx.com/tools-resources/leadhunter-study-reports-data-analysis), for each pair of kinase/ligand. The POC is calculated as reported in equation (1): […]
(§2) The ability of compounds 19 and 27 to bind the class III RTK members was measured (Table 2; see also Figs S3 and S4 for dose/response curves).
(§3) Figure S3. Dose/response curve for compound 19 against tested kinases for Kd determination. The amount of kinase measured by qPCR (Signal; y-axis) is plotted against the corresponding compound concentration in nM in log10 scale (x-axis). Data points marked with an "x" were not used for Kd determination.
(§4) (1 picture or pasted object on this page, not shown here)
(§5) Figure S4. Dose/response curve for compound 27 against tested kinases for Kd

[2] = biological target: T2, KIT (Homo sapiens, UniProt P10721); test: KinomeScan Kd determination, KIT; settings: for KdRTK/KdKIT, KIT: Kd KIT over Kd KIT; for Kd: KinomeScan
T2 construct: purchased DiscoverX (KinomeScan service)
Experimental: as §1, §2, §3, §4, §5

[3] = biological target: T3, FLT3 (Homo sapiens, UniProt P36888); test: KinomeScan Kd determination, FLT3; settings: for KdRTK/KdKIT, FLT3: Kd FLT3 over Kd KIT; for Kd: KinomeScan
T3 construct: purchased DiscoverX (KinomeScan service)
T3 sequence (P36888 27-993): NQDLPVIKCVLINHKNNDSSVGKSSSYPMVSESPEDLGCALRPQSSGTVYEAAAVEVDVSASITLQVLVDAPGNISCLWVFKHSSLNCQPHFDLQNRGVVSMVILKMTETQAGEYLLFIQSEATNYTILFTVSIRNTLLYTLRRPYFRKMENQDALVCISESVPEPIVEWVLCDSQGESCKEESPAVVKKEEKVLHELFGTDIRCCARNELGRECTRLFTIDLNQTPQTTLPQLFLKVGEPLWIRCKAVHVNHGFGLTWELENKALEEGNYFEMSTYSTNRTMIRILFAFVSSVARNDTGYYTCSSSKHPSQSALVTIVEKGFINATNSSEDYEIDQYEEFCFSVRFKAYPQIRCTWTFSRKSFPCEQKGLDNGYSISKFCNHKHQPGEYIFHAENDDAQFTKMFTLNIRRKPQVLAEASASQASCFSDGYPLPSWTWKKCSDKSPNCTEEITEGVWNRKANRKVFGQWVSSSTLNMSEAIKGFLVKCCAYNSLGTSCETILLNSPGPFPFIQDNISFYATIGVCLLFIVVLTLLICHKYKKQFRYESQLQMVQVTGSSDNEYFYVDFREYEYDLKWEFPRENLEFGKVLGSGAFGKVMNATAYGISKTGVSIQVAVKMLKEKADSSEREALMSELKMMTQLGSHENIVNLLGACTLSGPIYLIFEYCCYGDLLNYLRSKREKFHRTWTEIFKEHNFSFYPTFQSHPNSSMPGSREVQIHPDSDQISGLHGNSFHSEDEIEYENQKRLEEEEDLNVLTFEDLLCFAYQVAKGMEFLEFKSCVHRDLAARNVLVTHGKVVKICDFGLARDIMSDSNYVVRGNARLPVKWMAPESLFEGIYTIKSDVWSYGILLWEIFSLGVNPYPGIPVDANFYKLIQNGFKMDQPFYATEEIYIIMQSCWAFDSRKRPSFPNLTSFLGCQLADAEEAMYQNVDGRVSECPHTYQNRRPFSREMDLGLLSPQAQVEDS
Experimental: as §1, §2, §3, §4, §5

[4] = biological target: T4, PDGFRα (Homo sapiens, UniProt P16234); test: KinomeScan Kd determination, PDGFRα; settings: for KdRTK/KdKIT, PDGFRα: Kd PDGFRα over Kd KIT; for Kd: KinomeScan
T4 construct: purchased DiscoverX (KinomeScan service)
Experimental: as §1, §2, §3, §4, §5

T1 sequence (P07333 20-972): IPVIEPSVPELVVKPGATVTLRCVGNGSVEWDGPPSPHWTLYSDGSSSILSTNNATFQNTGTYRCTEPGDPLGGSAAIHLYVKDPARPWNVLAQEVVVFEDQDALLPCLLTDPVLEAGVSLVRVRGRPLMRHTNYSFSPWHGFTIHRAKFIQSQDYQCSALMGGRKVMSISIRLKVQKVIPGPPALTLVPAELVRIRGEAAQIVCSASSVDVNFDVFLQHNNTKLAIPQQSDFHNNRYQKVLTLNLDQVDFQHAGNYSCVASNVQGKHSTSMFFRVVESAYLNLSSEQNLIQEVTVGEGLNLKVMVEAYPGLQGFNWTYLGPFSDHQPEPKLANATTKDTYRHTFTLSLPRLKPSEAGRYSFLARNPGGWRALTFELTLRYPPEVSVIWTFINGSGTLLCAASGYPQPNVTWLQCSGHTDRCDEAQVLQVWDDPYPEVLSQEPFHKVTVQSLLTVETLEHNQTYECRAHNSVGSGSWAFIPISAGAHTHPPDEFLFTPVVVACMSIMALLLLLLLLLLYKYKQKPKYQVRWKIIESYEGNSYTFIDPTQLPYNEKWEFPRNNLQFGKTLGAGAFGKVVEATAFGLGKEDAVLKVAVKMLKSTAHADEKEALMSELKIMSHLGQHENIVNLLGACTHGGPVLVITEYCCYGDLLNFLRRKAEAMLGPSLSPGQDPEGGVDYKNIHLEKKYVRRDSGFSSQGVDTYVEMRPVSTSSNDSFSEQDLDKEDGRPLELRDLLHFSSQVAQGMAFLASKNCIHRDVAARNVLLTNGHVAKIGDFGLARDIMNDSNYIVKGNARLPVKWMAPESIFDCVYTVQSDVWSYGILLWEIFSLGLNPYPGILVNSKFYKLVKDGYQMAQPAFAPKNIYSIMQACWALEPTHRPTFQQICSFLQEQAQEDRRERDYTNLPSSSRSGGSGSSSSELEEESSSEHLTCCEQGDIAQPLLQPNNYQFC
T2 sequence (P10721 26-976): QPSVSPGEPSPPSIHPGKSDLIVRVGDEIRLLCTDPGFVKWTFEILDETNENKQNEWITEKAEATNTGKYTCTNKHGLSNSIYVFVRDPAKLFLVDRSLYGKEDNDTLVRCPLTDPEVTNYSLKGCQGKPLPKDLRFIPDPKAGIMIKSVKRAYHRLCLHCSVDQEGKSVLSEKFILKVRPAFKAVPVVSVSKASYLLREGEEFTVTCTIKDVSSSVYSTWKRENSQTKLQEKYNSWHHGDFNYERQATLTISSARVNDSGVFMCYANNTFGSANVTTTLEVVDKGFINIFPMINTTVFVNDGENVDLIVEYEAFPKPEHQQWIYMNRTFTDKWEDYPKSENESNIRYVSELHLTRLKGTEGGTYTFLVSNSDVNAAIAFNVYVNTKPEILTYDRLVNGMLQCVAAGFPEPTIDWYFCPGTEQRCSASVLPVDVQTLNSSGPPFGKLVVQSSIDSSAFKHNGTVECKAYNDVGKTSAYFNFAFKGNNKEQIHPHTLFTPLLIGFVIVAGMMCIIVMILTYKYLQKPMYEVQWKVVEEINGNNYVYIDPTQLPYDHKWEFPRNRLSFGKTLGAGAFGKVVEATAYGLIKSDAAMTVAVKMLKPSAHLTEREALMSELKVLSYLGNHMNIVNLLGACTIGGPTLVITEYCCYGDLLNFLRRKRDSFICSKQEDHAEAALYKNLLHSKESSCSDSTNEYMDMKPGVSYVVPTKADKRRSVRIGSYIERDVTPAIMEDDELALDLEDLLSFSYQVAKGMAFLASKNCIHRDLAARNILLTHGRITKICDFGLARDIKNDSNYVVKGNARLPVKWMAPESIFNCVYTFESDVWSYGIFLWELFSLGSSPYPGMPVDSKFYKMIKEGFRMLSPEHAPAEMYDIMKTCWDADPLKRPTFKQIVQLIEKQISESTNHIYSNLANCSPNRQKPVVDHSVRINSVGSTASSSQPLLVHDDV
T4 sequence (P16234 24-1089): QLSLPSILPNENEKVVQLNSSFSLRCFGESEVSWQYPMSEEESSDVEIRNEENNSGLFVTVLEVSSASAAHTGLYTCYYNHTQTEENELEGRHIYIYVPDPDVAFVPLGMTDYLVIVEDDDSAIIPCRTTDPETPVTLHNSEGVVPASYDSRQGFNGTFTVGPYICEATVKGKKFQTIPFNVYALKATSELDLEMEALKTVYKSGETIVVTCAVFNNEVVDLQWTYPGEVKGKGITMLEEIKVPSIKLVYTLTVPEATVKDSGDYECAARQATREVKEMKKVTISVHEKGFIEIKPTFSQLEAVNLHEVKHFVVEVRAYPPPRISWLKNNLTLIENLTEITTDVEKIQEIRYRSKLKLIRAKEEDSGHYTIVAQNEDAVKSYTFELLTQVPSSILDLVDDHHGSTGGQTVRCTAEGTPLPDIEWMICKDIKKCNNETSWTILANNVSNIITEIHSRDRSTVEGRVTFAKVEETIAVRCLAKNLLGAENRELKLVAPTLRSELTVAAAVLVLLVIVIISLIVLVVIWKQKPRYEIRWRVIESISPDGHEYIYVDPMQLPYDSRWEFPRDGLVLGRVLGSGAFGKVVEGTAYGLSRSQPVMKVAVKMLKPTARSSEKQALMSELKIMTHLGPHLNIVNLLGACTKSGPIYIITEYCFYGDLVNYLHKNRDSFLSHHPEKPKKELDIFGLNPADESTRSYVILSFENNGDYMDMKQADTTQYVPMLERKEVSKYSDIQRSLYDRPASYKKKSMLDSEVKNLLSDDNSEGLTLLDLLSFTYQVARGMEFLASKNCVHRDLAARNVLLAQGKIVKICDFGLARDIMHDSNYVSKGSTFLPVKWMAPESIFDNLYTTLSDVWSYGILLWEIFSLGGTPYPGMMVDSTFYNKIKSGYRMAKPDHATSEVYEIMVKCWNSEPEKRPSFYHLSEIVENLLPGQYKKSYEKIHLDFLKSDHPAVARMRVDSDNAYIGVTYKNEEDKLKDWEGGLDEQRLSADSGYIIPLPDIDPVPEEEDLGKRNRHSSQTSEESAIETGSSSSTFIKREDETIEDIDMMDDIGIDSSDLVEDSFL

SMILES	KdRTK/KdKIT, CSF1R [1]	Kd ([1]; read-out: Kd (nM) CSF1R) [nM]	KdRTK/KdKIT, KIT [2]	Kd [2] [nM]	KdRTK/KdKIT, FLT3 [3]	Kd ([3]; read-out: Kd (nM) FLT3) [nM]	KdRTK/KdKIT, PDGFRα [4]	Kd [4] [nM]	Potency improvement Kd19/Kd27, CSF1R ([1]; 27 versus 19)	Kd ([1]; bound stated, read-out: Kd against CSF1R) [nM]	Potency improvement Kd19/Kd27, KIT ([2]; 27 versus 19)	Potency improvement Kd19/Kd27, FLT3 ([3]; 27 versus 19)	Kd ([3]; bound stated, read-out: Kd against FLT3) [nM]	Potency improvement Kd19/Kd27, PDGFRα ([4]; 27 versus 19)
O=C(Nc1ccccc1)Nc1ccc(Nc2cc(-c3ccccc3)ncn2)cc1 [Compound 19]	132	2900	1	22	209	4600	44	960	–	–	–	–	–	–
O=C(CN1CCOCC1)Nc1cccc(-c2cc(Nc3ccc(NC(=O)Nc4ccccc4)cc3)ncn2)c1 [Compound 27]	110	1100	1	10	130	1300	11	110	2.6	> 1000	2.2	3.5	> 1000	8.7
